According to ChEMBL document CHEMBL1201862, “PubChem BioAssay data set” (2004):
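1) Cells in 96-well plates. 2) Compound, 48 h, 5 concentrations. 3) Linear interpolation between surrounding doses. 4) Unreached endpoint = highest concentration. GI50: concentration for 50% inhibition of growth.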 Active and inactive are the calls of the source. No stated cut-off is given here; in the data, active = GI50 up to about 1.1 µM and inactive = higher.

Assays:
Assay in all cases: NCI tumour cell line growth inhibition, 48 h
HT-29 = tested on: HT-29
BT-549 = tested on: BT-549
CAKI-1 = tested on: CAKI-1
SNB-75 = tested on: SNB-75
SK-MEL-28 = tested on: SK-MEL-28
SN12C = tested on: SN12C
SK-OV-3 = tested on: SK-OV-3
OVCAR-4 = tested on: OVCAR-4
HCC 2998 = tested on: HCC 2998
EKVX = tested on: EKVX
CCRF-CEM = tested on: CCRF-CEM
SW-620 = tested on: SW-620
MCF7 = tested on: MCF7
COLO 205 = tested on: COLO 205
M14 = tested on: M14
HCT-116 = tested on: HCT-116
Malme-3M = tested on: Malme-3M
K562 = tested on: K562
A498 = tested on: A498
NCI-H522 = tested on: NCI-H522

Oc1cc(-c2cccc(OC(F)(F)F)c2)nc2cc3c(cc12)OCO3
GI50 (HT-29): 1.96 µM (inactive)
GI50 (BT-549): 0.327 µM (active)
GI50 (CAKI-1): 0.0885 µM (active)
GI50 (SNB-75): 0.568 µM (active)
GI50 (SK-MEL-28): 0.323 µM (active)
GI50 (SN12C): 0.169 µM (active)
GI50 (SK-OV-3): 0.282 µM (active)
GI50 (OVCAR-4): 1.19 µM (inactive)
GI50 (HCC 2998): 0.0631 µM (active)
GI50 (EKVX): 0.643 µM (active)
GI50 (CCRF-CEM): 0.0301 µM (active)
GI50 (SW-620): 0.0883 µM (active)
GI50 (MCF7): 0.135 µM (active)
GI50 (COLO 205): 1.24 µM (inactive)
GI50 (M14): 0.0867 µM (active)
GI50 (HCT-116): 0.0395 µM (active)
GI50 (Malme-3M): 0.0435 µM (active)
GI50 (K562): 0.0275 µM (active)
GI50 (A498): 0.516 µM (active)
GI50 (NCI-H522): 0.0441 µM (active)

Nc1nc2c(ncn2Cc2ccccc2CO)c(=O)[nH]1
GI50 (HT-29): > 100 µM (inactive)
GI50 (BT-549): > 100 µM (inactive)
GI50 (CAKI-1): > 100 µM (inactive)
GI50 (SNB-75): > 100 µM (inactive)
GI50 (SK-MEL-28): > 100 µM (inactive)
GI50 (SN12C): > 100 µM (inactive)
GI50 (SK-OV-3): > 100 µM (inactive)
GI50 (OVCAR-4): > 100 µM (inactive)
GI50 (HCC 2998): > 100 µM (inactive)
GI50 (EKVX): > 100 µM (inactive)
GI50 (CCRF-CEM): > 100 µM (inactive)
GI50 (SW-620): > 100 µM (inactive)
GI50 (MCF7): > 100 µM (inactive)
GI50 (COLO 205): > 100 µM (inactive)
GI50 (M14): > 100 µM (inactive)
GI50 (HCT-116): > 100 µM (inactive)
GI50 (Malme-3M): > 100 µM (inactive)
GI50 (K562): > 100 µM (inactive)
GI50 (A498): > 100 µM (inactive)
GI50 (NCI-H522): > 100 µM (inactive)

C=C1CC(Cn2cc(C)c(=O)[nH]c2=O)(c2ccc(Cl)cc2)OC1=O (stereo not given)
GI50 (HT-29): 1.69 µM (inactive)
GI50 (BT-549): 1.51 µM (inactive)
GI50 (CAKI-1): 1.83 µM (inactive)
GI50 (SNB-75): 10.7 µM (inactive)
GI50 (SK-MEL-28): 2.18 µM (inactive)
GI50 (SN12C): 7.05 µM (inactive)
GI50 (SK-OV-3): 14.9 µM (inactive)
GI50 (OVCAR-4): 1.72 µM (inactive)
GI50 (HCC 2998): 3.8 µM (inactive)
GI50 (EKVX): 11.9 µM (inactive)
GI50 (CCRF-CEM): 0.855 µM (active)
GI50 (SW-620): 1.44 µM (inactive)
GI50 (MCF7): 0.933 µM (active)
GI50 (COLO 205): 1.42 µM (inactive)
GI50 (M14): 1.22 µM (inactive)
GI50 (HCT-116): 1.65 µM (inactive)
GI50 (Malme-3M): 1.88 µM (inactive)
GI50 (K562): 0.673 µM (active)
GI50 (A498): 5.94 µM (inactive)
GI50 (NCI-H522): 0.594 µM (active)

CCOC(=O)C1=CC(C)(C(=O)OCC)Nc2c(nc(SC)n(C)c2=O)N1 (stereo not given)
GI50 (HT-29): > 10 µM (inactive)
GI50 (BT-549): > 10 µM (inactive)
GI50 (CAKI-1): > 10 µM (inactive)
GI50 (SNB-75): > 10 µM (inactive)
GI50 (SK-MEL-28): > 10 µM (inactive)
GI50 (SN12C): > 10 µM (inactive)
GI50 (SK-OV-3): > 10 µM (inactive)
GI50 (OVCAR-4): > 10 µM (inactive)
GI50 (HCC 2998): > 10 µM (inactive)
GI50 (EKVX): > 10 µM (inactive)
GI50 (CCRF-CEM): > 10 µM (inactive)
GI50 (SW-620): > 10 µM (inactive)
GI50 (MCF7): > 10 µM (inactive)
GI50 (COLO 205): > 10 µM (inactive)
GI50 (M14): > 10 µM (inactive)
GI50 (HCT-116): > 10 µM (inactive)
GI50 (Malme-3M): > 10 µM (inactive)
GI50 (K562): > 10 µM (inactive)
GI50 (A498): > 10 µM (inactive)
GI50 (NCI-H522): > 10 µM (inactive)

C=C1C(=O)O[C@H]2C3C(=C(C)CC[C@@H]12)C(=O)[C@@H]1OC31C (stereo not given in full)
GI50 (HT-29): 1.66 µM (inactive)
GI50 (BT-549): 1.95 µM (inactive)
GI50 (CAKI-1): 2.67 µM (inactive)
GI50 (SNB-75): 2.38 µM (inactive)
GI50 (SK-MEL-28): 2.34 µM (inactive)
GI50 (SN12C): 1.63 µM (inactive)
GI50 (SK-OV-3): 15.4 µM (inactive)
GI50 (OVCAR-4): 1.58 µM (inactive)
GI50 (HCC 2998): 14.7 µM (inactive)
GI50 (EKVX): 14.4 µM (inactive)
GI50 (CCRF-CEM): 0.318 µM (active)
GI50 (SW-620): 0.685 µM (active)
GI50 (MCF7): 1.8 µM (inactive)
GI50 (COLO 205): 1.2 µM (inactive)
GI50 (M14): 1.68 µM (inactive)
GI50 (HCT-116): 1.11 µM (active)
GI50 (Malme-3M): 2.2 µM (inactive)
GI50 (K562): 0.698 µM (active)
GI50 (A498): 11.4 µM (inactive)
GI50 (NCI-H522): 1.53 µM (inactive)
